Holding throughout (assay): […]-ATP radiometric filter-binding kinase assay
What all share (assay type): biochemical

One assay addresses T1, CDK5/p35 (Homo sapiens, UniProt Q00535).
T1 construct: purified CDK5/p35 complex

Another assay addresses T2, CDK9/cyclin K (Homo sapiens, UniProt P50750).
T2 construct: purified CDK9/cyclin K complex; with Cyclin-K

For a further assay, the target named is T3, CDK2/cyclin E (Homo sapiens, UniProt P24941).
T3 construct: purified CDK/cyclin complex; with G1/S-specific cyclin-E1

The next assay addresses T4, CDK1/cyclin E (Homo sapiens, UniProt P06493).
T4 construct: purified CDK/cyclin complex; with G1/S-specific cyclin-E1

Where two headings read alike, the source gives them in different places.

Our source for the IC50 values is article PMC10417023, “Imidazole-4-N-acetamide Derivatives as a Novel Scaffold for Selective Targeting of Cyclin Dependent Kinases” (Cancers, 2023).

T1 sequence (Q00535 whole entry): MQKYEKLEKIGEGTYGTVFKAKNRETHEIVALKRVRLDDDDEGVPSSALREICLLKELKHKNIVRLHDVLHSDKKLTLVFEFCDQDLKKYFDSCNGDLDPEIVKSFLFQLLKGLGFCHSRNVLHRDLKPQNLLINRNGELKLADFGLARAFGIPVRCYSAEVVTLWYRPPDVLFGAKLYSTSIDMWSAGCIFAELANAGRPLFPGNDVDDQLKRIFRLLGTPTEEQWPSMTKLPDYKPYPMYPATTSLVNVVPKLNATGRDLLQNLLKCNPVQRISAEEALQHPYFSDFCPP
T1 sequence (Q15078 2-307 partner): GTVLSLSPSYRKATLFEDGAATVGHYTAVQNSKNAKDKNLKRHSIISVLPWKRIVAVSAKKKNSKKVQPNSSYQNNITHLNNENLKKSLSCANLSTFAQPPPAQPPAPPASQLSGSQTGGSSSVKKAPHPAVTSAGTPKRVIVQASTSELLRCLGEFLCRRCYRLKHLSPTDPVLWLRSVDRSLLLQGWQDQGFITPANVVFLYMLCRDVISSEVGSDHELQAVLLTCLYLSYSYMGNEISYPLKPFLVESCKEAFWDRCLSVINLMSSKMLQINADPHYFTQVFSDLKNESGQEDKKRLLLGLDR
T2 sequence (P50750 whole entry): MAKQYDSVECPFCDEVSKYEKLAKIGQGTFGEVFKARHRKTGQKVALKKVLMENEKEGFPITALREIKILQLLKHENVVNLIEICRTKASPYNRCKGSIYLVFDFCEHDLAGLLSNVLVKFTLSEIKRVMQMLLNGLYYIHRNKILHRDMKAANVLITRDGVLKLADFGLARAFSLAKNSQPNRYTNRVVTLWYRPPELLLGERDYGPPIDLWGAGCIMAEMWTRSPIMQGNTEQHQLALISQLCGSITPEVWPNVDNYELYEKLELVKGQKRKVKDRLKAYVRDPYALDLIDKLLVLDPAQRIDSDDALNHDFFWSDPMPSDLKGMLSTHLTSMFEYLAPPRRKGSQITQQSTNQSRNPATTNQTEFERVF
T2 sequence (O75909 whole entry partner): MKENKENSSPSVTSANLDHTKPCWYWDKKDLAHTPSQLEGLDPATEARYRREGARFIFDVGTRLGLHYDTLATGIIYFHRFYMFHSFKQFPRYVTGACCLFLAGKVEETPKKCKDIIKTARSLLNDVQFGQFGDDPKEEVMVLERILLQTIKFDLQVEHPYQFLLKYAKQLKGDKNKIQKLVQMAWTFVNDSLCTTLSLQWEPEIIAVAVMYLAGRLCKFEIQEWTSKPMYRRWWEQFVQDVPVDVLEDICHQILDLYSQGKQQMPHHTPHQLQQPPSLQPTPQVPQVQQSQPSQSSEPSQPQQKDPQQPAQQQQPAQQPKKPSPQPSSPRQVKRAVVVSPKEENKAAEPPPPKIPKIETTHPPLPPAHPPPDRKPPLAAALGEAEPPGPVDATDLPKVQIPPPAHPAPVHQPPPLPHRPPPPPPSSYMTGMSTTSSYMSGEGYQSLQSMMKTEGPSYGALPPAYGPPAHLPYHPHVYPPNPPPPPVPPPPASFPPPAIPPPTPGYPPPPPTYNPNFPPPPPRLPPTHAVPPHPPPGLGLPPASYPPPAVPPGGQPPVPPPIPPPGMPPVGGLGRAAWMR
T4 sequence (P06493 whole entry): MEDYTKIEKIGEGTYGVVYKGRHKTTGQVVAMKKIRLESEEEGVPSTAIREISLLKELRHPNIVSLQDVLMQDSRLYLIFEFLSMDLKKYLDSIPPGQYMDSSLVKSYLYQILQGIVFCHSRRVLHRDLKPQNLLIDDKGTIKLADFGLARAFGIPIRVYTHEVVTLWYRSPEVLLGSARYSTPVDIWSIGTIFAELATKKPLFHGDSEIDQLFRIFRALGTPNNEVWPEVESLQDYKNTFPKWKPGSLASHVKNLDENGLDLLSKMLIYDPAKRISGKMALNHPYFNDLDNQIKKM
T4 sequence (P24864 whole entry partner): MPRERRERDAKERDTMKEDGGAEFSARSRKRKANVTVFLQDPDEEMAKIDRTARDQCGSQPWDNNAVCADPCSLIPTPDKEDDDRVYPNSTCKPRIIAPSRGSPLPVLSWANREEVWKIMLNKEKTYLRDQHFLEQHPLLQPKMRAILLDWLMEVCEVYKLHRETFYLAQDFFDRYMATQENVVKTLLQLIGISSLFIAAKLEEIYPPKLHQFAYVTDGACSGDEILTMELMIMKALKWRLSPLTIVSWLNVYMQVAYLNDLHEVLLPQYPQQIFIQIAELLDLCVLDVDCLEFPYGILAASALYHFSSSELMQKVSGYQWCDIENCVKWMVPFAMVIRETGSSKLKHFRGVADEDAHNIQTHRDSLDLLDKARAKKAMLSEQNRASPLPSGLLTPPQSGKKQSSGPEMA

`CC(C)n1cnc(NC(=O)Cc2ccccn2)c1` [compound 4, Compound 4]: the IC50 at CDK5/p35 (read-out: Compound 4) was 20000 nM; on CDK9/cyclin K (read-out: Compound 4), 880 nM; on CDK2/cyclin E (read-out: Compound 4) it was 270 nM; on CDK1/cyclin E (read-out: Compound 4) it was 6200 nM.

`CC(C)n1cnc(NC(=O)Cc2ccccc2)c1` [compound 1, Compound 1]: the IC50 on CDK5/p35 (read-out: Compound 1) worked out at 40000 nM; on CDK9/cyclin K (read-out: Compound 1) it was 3000 nM; on CDK2/cyclin E (read-out: Compound 1), 710 nM; at CDK1/cyclin E (read-out: Compound 1) it was 14000 nM.

As for `CC(C)n1cnc(NC(=O)Cc2ccccc2O)c1` [compound 2, Compound 2], the IC50 at CDK5/p35 (read-out: Compound 2) worked out at 880 nM; on CDK9/cyclin K (read-out: Compound 2) it was 1000 nM; on CDK2/cyclin E (read-out: Compound 2), 160 nM; at CDK1/cyclin E (read-out: Compound 2), 720 nM.

Take `CC(C(=O)Nc1cn(C(C)C)cn1)c1ccccc1` (racemic) [compound 3, Compound 3]: the IC50 came to 79000 nM at CDK5/p35 (read-out: Compound 3), 4300 nM on CDK9/cyclin K (read-out: Compound 3), 1200 nM on CDK2/cyclin E (read-out: Compound 3) and 30000 nM on CDK1/cyclin E (read-out: Compound 3).
